Experimental data from US8158791B2, “Aza-substituted spiro derivatives” (MSD K.K., priority 2005, dated 2012).

biological target: T1, human histamine-H3 receptor (Homo sapiens, UniProt Q9Y5N1); test: Histamine analogue-binding inhibition test; conditions: 50% inhibitory concentration to specific [3H]N-α-methylhistamine binding; membrane specimen of histamine-H3 receptor expression cells; 25° C., 2 hours, pH 7.4
T1 construct: expressed in transfected cells; host or cells: HEK293 and CHO-K1 (membrane preparation)
T1 sequence (Q9Y5N1 whole entry): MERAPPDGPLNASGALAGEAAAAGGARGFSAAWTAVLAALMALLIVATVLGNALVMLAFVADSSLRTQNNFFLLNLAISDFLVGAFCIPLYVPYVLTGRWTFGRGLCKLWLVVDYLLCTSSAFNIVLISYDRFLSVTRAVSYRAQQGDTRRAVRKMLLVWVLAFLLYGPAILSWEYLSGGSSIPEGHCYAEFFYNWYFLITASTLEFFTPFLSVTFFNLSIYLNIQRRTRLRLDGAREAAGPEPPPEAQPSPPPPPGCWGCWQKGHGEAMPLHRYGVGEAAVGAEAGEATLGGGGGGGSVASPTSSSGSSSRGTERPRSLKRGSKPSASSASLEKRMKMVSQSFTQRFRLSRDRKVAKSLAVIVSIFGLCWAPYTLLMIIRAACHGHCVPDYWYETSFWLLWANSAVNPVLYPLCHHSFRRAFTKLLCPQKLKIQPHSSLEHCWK
Text: A cDNA sequence coding for a human histamine-H3 receptor [see WO00/39164) was cloned with expression vectors pCR2.1, pEF1× (by Invitrogen) and pCI-neo (by Promega). The resulting expression vector was transfected into host cells, HEK293 and CHO-K1 (American Type Culture Collection), according to a cationic lipid process [see Proceedings of the National Academy of Sciences of the United States of America, Vol., 84, p. 7413 (1987)] to obtain histamine-H3 receptor expression cells.
A membrane specimen prepared from the cells having expressed a histamine-H3 receptor was incubated in an assay buffer (50 mM Tris buffer, pH 7.4) along with a test compound and 20,000 cpm [3H]N-α-methylhistamine (by NEN) therein, at 25° C. for 2 hours, and then filtered through a glass filter GF/C. After washed with 50 mM Tris buffer (pH 7.4), the radioactivity on the glass filter was determined. The non-specific binding was determined in the presence of 10 μM thioperamide (by SIGAM), and the 50% inhibitory concentration (IC50) of the test compound to the specific N-alpha-methylhistamine binding was calculated [see Molecular Pharmacology, Vol. 55, p. 1101 (1999)].

IC50	Compound
0.72 nM	CN(CCN1CCCC1)C(=O)[C@H]1CC[C@@]2(CC1)OC(=O)c1ncccc12 [Example 3, Trans-3′-oxo-N-methyl-N-(2-pyrrolidin-1-ylethyl)-spiro[cyclohexane-1,1′-(3′H)-4′-azaisobenzofuran]-4-carboxamide]
0.92 nM	COc1ccc2c(n1)C(=O)O[C@]21CC[C@H](C(=O)N(C)CCN2CCCCC2)CC1 [Example 11, Trans-5′-methoxy-3′-oxo-N-methyl-N-(2-piperidin-1-ylethyl)-spiro[cyclohexane-1,1′-(3′H)-4′-azaisobenzofuran]-4-carboxamide]
0.92 nM	COc1ccc2c(n1)C(=O)O[C@]21CC[C@H](C(=O)N(C)CCN2CCCC2)CC1 [Example 13, Trans-5′-methoxy-3′-oxo-N-methyl-N-(2-pyrrolidin-1-ylethyl)-spiro[cyclohexane-1,1′-(3′H)-4′-azaisobenzofuran]-4-carboxamide]
1.9 nM	CN(CCN1CCCC1)C(=O)[C@H]1CC[C@@]2(CC1)OC(=O)c1nc(N3CCCCC3)ccc12 [Example 17, Trans-5′-(piperidin-1-yl)-3′-oxo-N-methyl-N-(2-pyrrolidin-1-ylethyl)-spiro[cyclohexane-1,1′-(3′H)-4′-azaisobenzofuran]-4-carboxamide]
0.42 nM	CN(CCN1CCCC1)C(=O)[C@H]1CC[C@@]2(CC1)OC(=O)c1nc(-c3ccccc3)ccc12 [Example 21, Trans-5′-phenyl-3′-oxo-N-methyl-N-(2-pyrrolidin-1-ylethyl)-spiro[cyclohexane-1,1′-(3′H)-4′-azaisobenzofuran]-4-carboxamide]
0.32 nM	COc1nccc2c1C(=O)O[C@]21CC[C@H](C(=O)N(C)CCN2CCCCC2)CC1 [Example 34, Trans-4′-methoxy-3′-oxo-N-methyl-N-(2-piperidin-1-ylethyl)-spiro[cyclohexane-1,1′-(3′H)-5′-azaisobenzofuran]-4-carboxamide]
0.51 nM	Cc1nccc2c1C(=O)O[C@]21CC[C@H](C(=O)N(C)CCN2CCCCC2)CC1 [Example 41, Trans-4′-methyl-3′-oxo-N-methyl-N-(2-piperidin-1-ylethyl)-spiro[cyclohexane-1,1′-(3′H)-5′-azaisobenzofuran]-4-carboxamide]
0.14 nM	CN(CCN1CCCCC1)C(=O)[C@H]1CC[C@@]2(CC1)OC(=O)c1c(-c3cnn(C)c3)nccc12 [Example 45, Trans-4′-(1-methyl-1H-pyrazol-4-yl)-3′-oxo-N-methyl-N-(2-piperidin-1-ylethyl)-spiro[cyclohexane-1,1′-(3′H)-5′-azaisobenzofuran]-4-carboxamide]
0.07 nM	CN(CCN1CCCCC1)C(=O)[C@H]1CC[C@@]2(CC1)OC(=O)c1nc(-c3cnccn3)ccc12 [Example 54, Trans-5′-pyrazinyl-3′-oxo-N-methyl-N-(2-piperidin-1-ylethyl)-spiro[cyclohexane-1,1′-(3′H)-4′-azisobenzofuran]-4-carboxamide]
